Assay results reported in publication PMC4188808 (Neuropharmacology, 2014).
pEC50: −log10 of the molar value.

Legend:
[1] = system: N-methyl-D-aspartate receptor (NMDAR); set-up: species or system Rattus norvegicus
[2] = molecular target: NMDAR expressing GluN2B (NR2B) subunits (Rattus norvegicus, UniProt P35439+Q00960); type: cell-based
Sequence of NMDAR expressing GluN2B (NR2B) subunits (Q00960 27-1482, other chains not shown): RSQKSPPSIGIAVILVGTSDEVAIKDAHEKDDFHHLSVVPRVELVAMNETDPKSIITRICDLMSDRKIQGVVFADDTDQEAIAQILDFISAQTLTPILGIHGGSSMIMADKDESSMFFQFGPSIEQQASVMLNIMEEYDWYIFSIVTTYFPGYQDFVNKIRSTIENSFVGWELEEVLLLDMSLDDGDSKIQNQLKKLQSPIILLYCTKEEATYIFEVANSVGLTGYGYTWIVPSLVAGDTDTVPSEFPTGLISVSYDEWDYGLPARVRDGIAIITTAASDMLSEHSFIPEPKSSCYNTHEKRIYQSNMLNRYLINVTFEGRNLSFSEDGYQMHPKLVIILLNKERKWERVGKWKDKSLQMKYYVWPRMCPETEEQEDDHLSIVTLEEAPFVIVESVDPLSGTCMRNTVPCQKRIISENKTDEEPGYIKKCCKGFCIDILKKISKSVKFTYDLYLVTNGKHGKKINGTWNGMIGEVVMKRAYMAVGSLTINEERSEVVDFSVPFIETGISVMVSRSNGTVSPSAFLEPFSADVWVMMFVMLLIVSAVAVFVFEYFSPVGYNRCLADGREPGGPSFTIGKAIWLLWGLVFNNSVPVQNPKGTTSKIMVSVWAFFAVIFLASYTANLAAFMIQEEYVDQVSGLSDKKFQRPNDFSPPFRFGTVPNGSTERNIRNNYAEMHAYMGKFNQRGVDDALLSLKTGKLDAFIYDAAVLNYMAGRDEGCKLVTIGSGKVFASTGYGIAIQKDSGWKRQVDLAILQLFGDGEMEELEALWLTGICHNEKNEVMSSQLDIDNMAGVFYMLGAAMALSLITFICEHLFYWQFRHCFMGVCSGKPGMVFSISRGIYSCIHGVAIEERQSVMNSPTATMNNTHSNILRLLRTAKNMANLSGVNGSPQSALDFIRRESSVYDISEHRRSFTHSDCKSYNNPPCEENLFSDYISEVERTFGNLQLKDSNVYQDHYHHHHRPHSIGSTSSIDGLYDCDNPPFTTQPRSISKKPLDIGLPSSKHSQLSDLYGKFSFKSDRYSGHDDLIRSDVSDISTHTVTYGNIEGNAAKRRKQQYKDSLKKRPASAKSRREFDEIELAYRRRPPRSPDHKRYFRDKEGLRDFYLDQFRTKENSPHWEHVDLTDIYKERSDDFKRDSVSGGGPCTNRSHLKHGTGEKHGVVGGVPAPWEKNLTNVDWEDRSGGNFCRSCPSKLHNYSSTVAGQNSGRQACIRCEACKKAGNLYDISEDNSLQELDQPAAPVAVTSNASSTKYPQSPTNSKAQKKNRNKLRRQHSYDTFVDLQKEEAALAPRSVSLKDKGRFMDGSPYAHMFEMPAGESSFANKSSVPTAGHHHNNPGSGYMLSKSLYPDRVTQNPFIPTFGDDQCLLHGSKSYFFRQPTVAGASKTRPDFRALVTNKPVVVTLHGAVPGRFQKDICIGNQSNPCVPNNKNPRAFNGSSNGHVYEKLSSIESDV

SMILES	pEC50 [1]	% inhibition at 10 μM [2]
CNC1(c2ccccc2Cl)CCCCC1=O (racemic) [ketamine]	~5.00	–
CC(C(O)c1ccc(O)cc1)N1CCC(Cc2ccccc2)CC1 (centres unmarked) [ifenprodil]	–	43.4 ± 7.3
